Data on one sequence can be found in patent US20120270928A1, “MICRORNA COMPOUNDS AND METHODS FOR MODULATING MIR-21 ACTIVITY” (REGULUS THERAPEUTICS INC., priority 2011, published 2012).

A short description of data set [1]: Ex vivo liver homogenate stability assay (HPLC-TOF MS). Particulars: 5 μM oligonucleotide in liver homogenate (50 mg tissue per ml), 24 hours at 37° C.
Data set [2] is described as follows: In vivo stability of compound in kidney tissue after administration to mice. As to conditions: 7 days post-injection.

Turning to “AECSATCSAGTCSTGAUSAAGCSTAE (ACATCAGTCTGATAAGCTA; modified nucleosides, phosphorothioate linkages, chemistry not fully specified) [Compound 25070]”, in data set [1], the “compound lacking the 3′-terminal nucleoside” value was “about 27%” and the “compound present as the full-length compound” value is “about 58%”. Further, the “compound present in kidney tissue lacking the 3′-terminal nucleoside” value in data set [2] was “about 50%”.
